# Test system: PC3 cells
# Test: NAMPT Cell Proliferation Assay
# Type: cell-based
# Details: Homo sapiens, PC-3, 120 h, 5 days incubation, cell viability by Cell Titer Glo
# Description: NAMPT Cell Proliferation Assay
# PC3 cells were seeded in 96-well black plates (Corning #3904) at 500 cells/well in 90 μl of RPMI media containing 10% heat-inactivated FBS and incubated overnight at 37° C. and 5% CO2 to allow cells to attach to wells. The following day, test compounds were serially diluted in neat DMSO to 1000× final concentrations prior to dilution with RPMI media to 10× and 1% DMSO. Ten μL of the 10× compounds were then transferred to wells containing cells to produce a dose response of 10-fold dilutions from 10 μM to 1×10^−5 μM. Cells were incubated for 5 days at 37° C. and 5% CO2, then cell viability was measured using Cell Titer Glo reagent (Promega #G7571). Percent inhibition values were calculated and fitted to a sigmoidal dose response curves using Assay Explorer software to determine IC50s.
row,SMILES,IC50
1,"O=C(NCc1ccc2ncnn2c1)c1ccc(C2CCN(C(=O)c3ccc(F)cc3)CC2)s1 [Example 833, 5-[1-(4-fluorobenzoyl)piperidin-4-yl]-N-([1,2,4]triazolo[1,5-a]pyridin-6-ylmethyl)thiophene-2-carboxamide]",70 nM
2,"O=C(Cc1ccccc1F)Nc1ccc(C(=O)NCc2ccn3ccnc3c2)cc1 [Example 876, 4-{[(2-fluorophenyl)acetyl]amino}-N-(imidazo[1,2-a]pyridin-7-ylmethyl)benzamide]",47.7 nM
3,"O=C(NCc1ccn2ccnc2c1)Nc1ccc(C2CCN(C(=O)C3COc4ccccc4O3)CC2)cc1 (stereo not drawn) [Example 1023, 1-{4-[1-(2,3-dihydro-1,4-benzodioxin-2-ylcarbonyl)piperidin-4-yl]phenyl}-3-(imidazo[1,2-a]pyridin-7-ylmethyl)urea]",6.87 nM
4,"O=C(Cc1cc(F)ccc1F)Nc1ccc(C(=O)NCc2ccn3ccnc3c2)cc1 [Example 890, 4-{[(2,5-difluorophenyl)acetyl]amino}-N-(imidazo[1,2-a]pyridin-7-ylmethyl)benzamide]",31.8 nM
5,"CC[C@H](C)C(=O)N1CCC(c2ccc(C(=O)NCc3ccc4ncnn4c3)s2)CC1 [Example 844, 5-{1-[(2S)-2-methylbutanoyl]piperidin-4-yl}-N-([1,2,4]triazolo[1,5-a]pyridin-6-ylmethyl)thiophene-2-carboxamide]",14.8 nM
6,"COc1csc(C(=O)N2CCC(c3ccc(C(=O)NCc4ccn5ccnc5c4)cc3)CC2)c1 [Example 1092, N-(imidazo[1,2-a]pyridin-7-ylmethyl)-4-{1-[(4-methoxythiophen-2-yl)carbonyl]piperidin-4-yl}benzamide]",17.7 nM
7,"O=C(NCc1ccn2ccnc2c1)c1ccc(C2CCN(C(=O)c3onc4c3CCCC4)CC2)cc1 [Example 962, N-(imidazo[1,2-a]pyridin-7-ylmethyl)-4-[1-(4,5,6,7-tetrahydro-2,1-benzoxazol-3-ylcarbonyl)piperidin-4-yl]benzamide]",16.1 nM
8,"O=C(NCc1ccn2ccnc2c1)c1ccc(C2CCN(C(=O)c3ccc4cccnc4c3)CC2)cc1 [Example 984, N-(imidazo[1,2-a]pyridin-7-ylmethyl)-4-[1-(quinolin-7-ylcarbonyl)piperidin-4-yl]benzamide]",55.4 nM
9,"N#Cc1cc(C(=O)N2CCC(c3ccc(NC(=O)NCc4ccn5ccnc5c4)cc3)CC2)ccc1F [Example 1052, 1-{4-[1-(3-cyano-4-fluorobenzoyl)piperidin-4-yl]phenyl}-3-(imidazo[1,2-a]pyridin-7-ylmethyl)urea]",27.1 nM
10,"O=C(NCc1cn2ccnc2cn1)c1ccc(S(=O)(=O)c2ccccc2)cc1 [Example 897, N-(imidazo[1,2-a]pyrazin-6-ylmethyl)-4-(phenylsulfonyl)benzamide]",716 nM
11,"CCc1cc(C(=O)N2CCC(c3ccc(C(=O)NCc4ccn5ccnc5c4)cc3)CC2)on1 [Example 1002, 4-{1-[(3-ethyl-1,2-oxazol-5-yl)carbonyl]piperidin-4-yl}-N-(imidazo[1,2-a]pyridin-7-ylmethyl)benzamide]",154 nM
12,"COc1ccc(C(=O)N2CCC(c3ccc(C(=O)NCc4ccn5ccnc5c4)cc3)CC2)nc1OC [Example 1115, 4-{1-[(5,6-dimethoxypyridin-2-yl)carbonyl]piperidin-4-yl}-N-(imidazo[1,2-a]pyridin-7-ylmethyl)benzamide]",21.2 nM
13,"Cc1cc(C(=O)N2CCC(c3ccc(NC(=O)NCc4ccn5ccnc5c4)cc3)CC2)cnc1C [Example 1059, 1-(4-{1-[(5,6-dimethylpyridin-3-yl)carbonyl]piperidin-4-yl}phenyl)-3-(imidazo[1,2-a]pyridin-7-ylmethyl)urea]",16.4 nM
14,"O=C(NCc1ccc2ncnn2c1)c1ccc(C2CCN(C(=O)CCC(F)(F)F)CC2)s1 [Example 847, N-([1,2,4]triazolo[1,5-a]pyridin-6-ylmethyl)-5-[1-(4,4,4-trifluorobutanoyl)piperidin-4-yl]thiophene-2-carboxamide]",93.6 nM
15,"COc1ccc(C)cc1CC(=O)N1CCC(c2ccc(C(=O)NCc3ccn4ccnc4c3)cc2)CC1 [Example 936, N-(imidazo[1,2-a]pyridin-7-ylmethyl)-4-{1-[(2-methoxy-5-methylphenyl)acetyl]piperidin-4-yl}benzamide]",32.5 nM
16,"O=C(NCc1ccn2ccnc2c1)c1ccc(C2CCN(C(=O)Cc3cccnc3Cl)CC2)cc1 [Example 972, 4-{1-[(2-chloropyridin-3-yl)acetyl]piperidin-4-yl}-N-(imidazo[1,2-a]pyridin-7-ylmethyl)benzamide]",28.9 nM
17,"O=C(NCc1ccn2ccnc2c1)c1ccc(C2=CCN(c3ccncn3)CC2)cc1 [Example 1154, N-(imidazo[1,2-a]pyridin-7-ylmethyl)-4-[1-(pyrimidin-4-yl)-1,2,3,6-tetrahydropyridin-4-yl]benzamide]",170 nM

# Compounds with a lower IC50, results first:
row,IC50,SMILES
1,5.51 nM,"CCn1cc(C(=O)N2CCC(c3ccc(NC(=O)NCc4ccn5ccnc5c4)cc3)CC2)c(C(C)C)n1 [Example 1134, 1-[4-(1-{[1-ethyl-3-(propan-2-yl)-1H-pyrazol-4-yl]carbonyl}piperidin-4-yl)phenyl]-3-(imidazo[1,2-a]pyridin-7-ylmethyl)urea]"
2,4.58 nM,"Cc1cccc(C(=O)N2CCC(c3ccc(C(=O)NCc4ccn5ccnc5c4)cc3)CC2)c1 [Example 923, N-(imidazo[1,2-a]pyridin-7-ylmethyl)-4-[1-(3-methylbenzoyl)piperidin-4-yl]benzamide]"
3,2.76 nM,"N#Cc1ccc(C(=O)N2CCC(c3ccc(NC(=O)NCc4ccn5ccnc5c4)cc3)CC2)c(Cl)c1 [Example 954, 1-{4-[1-(2-chloro-4-cyanobenzoyl)piperidin-4-yl]phenyl}-3-(imidazo[1,2-a]pyridin-7-ylmethyl)urea]"
4,2.32 nM,"Cn1nc(C2CC2)cc1C(=O)N1CCC(c2ccc(NC(=O)NCc3ccn4ccnc4c3)cc2)CC1 [Example 1013, 1-(4-{1-[(3-cyclopropyl-1-methyl-1H-pyrazol-5-yl)carbonyl]piperidin-4-yl}phenyl)-3-(imidazo[1,2-a]pyridin-7-ylmethyl)urea]"
5,2.29 nM,"Cc1ccc(F)c(C(=O)N2CCC(c3ccc(NC(=O)NCc4ccn5ccnc5c4)cc3)CC2)n1 [Example 1017, 1-(4-{1-[(3-fluoro-6-methylpyridin-2-yl)carbonyl]piperidin-4-yl}phenyl)-3-(imidazo[1,2-a]pyridin-7-ylmethyl)urea]"
6,2.28 nM,"O=C(NCc1ccn2ccnc2c1)Nc1ccc(C2CCN(C(=O)c3cncc4ccccc34)CC2)cc1 [Example 1027, 1-(imidazo[1,2-a]pyridin-7-ylmethyl)-3-{4-[1-(isoquinolin-4-ylcarbonyl)piperidin-4-yl]phenyl}urea]"
7,2.26 nM,"CC1Cc2cccc(C(=O)N3CCC(c4ccc(C(=O)NCc5ccn6ccnc6c5)cc4)CC3)c2O1 (stereo not drawn) [Example 1107, N-(imidazo[1,2-a]pyridin-7-ylmethyl)-4-{1-[(2-methyl-2,3-dihydro-1-benzofuran-7-yl)carbonyl]piperidin-4-yl}benzamide]"
8,2.06 nM,"O=C(NCc1ccn2ccnc2c1)c1ccc(C2CCN(C(=O)c3ccnn3C3CCCC3)CC2)cc1 [Example 1101, 4-{1-[(1-cyclopentyl-1H-pyrazol-5-yl)carbonyl]piperidin-4-yl}-N-(imidazo[1,2-a]pyridin-7-ylmethyl)benzamide]"
9,1.77 nM,"CC(Oc1cccc(F)c1)C(=O)N1CCC(c2ccc(C(=O)NCc3ccn4ccnc4c3)cc2)CC1 (stereo not drawn) [Example 968, 4-{1-[2-(3-fluorophenoxy)propanoyl]piperidin-4-yl}-N-(imidazo[1,2-a]pyridin-7-ylmethyl)benzamide]"
10,1.72 nM,"O=C(NCc1ccn2ccnc2c1)Nc1ccc(C2CCN(C(=O)c3ccoc3C(F)(F)F)CC2)cc1 [Example 1153, 1-(imidazo[1,2-a]pyridin-7-ylmethyl)-3-[4-(1-{[2-(trifluoromethyl)furan-3-yl]carbonyl}piperidin-4-yl)phenyl]urea]"
11,1.68 nM,"O=C(NCc1ccn2ccnc2c1)Nc1ccc(C2CCN(C(=O)c3onc4c3CCCC4)CC2)cc1 [Example 1015, 1-(imidazo[1,2-a]pyridin-7-ylmethyl)-3-{4-[1-(4,5,6,7-tetrahydro-2,1-benzoxazol-3-ylcarbonyl)piperidin-4-yl]phenyl}urea]"
12,1.2 nM,"COc1cccc(C)c1C(=O)N1CCC(c2ccc(C(=O)NCc3ccn4ccnc4c3)cc2)CC1 [Example 1009, N-(imidazo[1,2-a]pyridin-7-ylmethyl)-4-[1-(2-methoxy-6-methylbenzoyl)piperidin-4-yl]benzamide]"
13,0.78 nM,"CC(C)(C)OC(=O)N1CCC(c2ccc(NC(=O)Cc3ccc4nccn4c3)cc2)CC1 [Example 862, tert-butyl 4-{4-[(imidazo[1,2-a]pyridin-6-ylacetyl)amino]phenyl}piperidine-1-carboxylate]"
14,0.525 nM,"O=C(Cc1ccc2nccn2c1)Nc1ccc(C2CCN(C(=O)c3ccc(F)cc3F)CC2)cc1 [Example 866, N-{4-[1-(2,4-difluorobenzoyl)piperidin-4-yl]phenyl}-2-(imidazo[1,2-a]pyridin-6-yl)acetamide]"
15,0.473 nM,"CC(C)(C)CC(=O)N1CCC(c2ccc(NC(=O)NCc3ccn4ccnc4c3)c(F)c2)CC1 [Example 1071, 1-{4-[1-(3,3-dimethylbutanoyl)piperidin-4-yl]-2-fluorophenyl}-3-(imidazo[1,2-a]pyridin-7-ylmethyl)urea]"
16,0.344 nM,"Cc1nn(C)c(C(=O)N2CCC(c3ccc(NC(=O)NCc4ccn5ccnc5c4)cc3)CC2)c1Cl [Example 1124, 1-(4-{1-[(4-chloro-1,3-dimethyl-1H-pyrazol-5-yl)carbonyl]piperidin-4-yl}phenyl)-3-(imidazo[1,2-a]pyridin-7-ylmethyl)urea]"

# Source: patent publication US9187472B2 (AbbVie Inc., priority 2012, dated 2015)
